Measurements reported in ChEMBL document CHEMBL1147662, “Biarylaniline phenethanolamines as potent and selective beta3 adrenergic receptor agonists” (J Med Chem, 2006).
Blank lines part the entries; values can stand above or below the compound they belong to.

Legend:
[1] = Bioavailability in Beagle dog; type: ADME, organism-based, Canis lupus familiaris; details: in vivo
Mus musculus [2] = experiment: Decrease in plasma insulin level in db/db mouse at 3 mg/kg, po after 14 days; type: functional
Mus musculus [3] = experiment: Decrease in glycosylated hemoglobin in db/db mouse at 0.3 mg/kg, po after 14 days; type: functional; parameters: scale not given: the % may be the effect or the level left
[4] = AUC(0-infinity) in po dosed Beagle dog; type: ADME, organism-based, Canis lupus familiaris; parameters: time infinity, route oral; details: plasma
[5] = Half life in po dosed Beagle dog; type: ADME, organism-based, Canis lupus familiaris; details: in vivo
[6] = target: T1, Beta-2 adrenergic receptor (Homo sapiens, UniProt P07550)
T1 sequence (P07550 whole entry): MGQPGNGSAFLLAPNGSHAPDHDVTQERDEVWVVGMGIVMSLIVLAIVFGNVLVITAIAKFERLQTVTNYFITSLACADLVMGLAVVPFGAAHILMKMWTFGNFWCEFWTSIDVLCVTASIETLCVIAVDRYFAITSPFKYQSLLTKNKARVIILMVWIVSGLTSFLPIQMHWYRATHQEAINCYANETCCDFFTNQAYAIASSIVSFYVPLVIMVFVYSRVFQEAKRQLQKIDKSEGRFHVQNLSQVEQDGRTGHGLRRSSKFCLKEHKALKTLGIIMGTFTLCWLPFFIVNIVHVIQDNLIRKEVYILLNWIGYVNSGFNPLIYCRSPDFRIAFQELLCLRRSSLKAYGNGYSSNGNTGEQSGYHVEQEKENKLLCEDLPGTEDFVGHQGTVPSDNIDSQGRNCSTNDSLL
Description: Activity at human beta-2 adrenergic receptor expressed in CHO cells by stimulation of cAMP production

[7] = Volume of distribution in Beagle dog; type: ADME, organism-based, Canis lupus familiaris; details: in vivo, read-out: Vss
Mus musculus [8] = experiment: Decrease in glycosylated hemoglobin in db/db mouse at 0.03 mg/kg, po after 14 days; type: functional; parameters: scale not given: the % may be the effect or the level left
Mus musculus [9] = experiment: Decrease in plasma insulin level in db/db mouse at 0.3 mg/kg, po after 14 days; type: functional
[10] = Clearance in Beagle dog; type: ADME, organism-based, Canis lupus familiaris; details: in vivo
Mus musculus [11] = experiment: Decrease in plasma insulin level in db/db mouse at 0.03 mg/kg, po after 14 days; type: functional
Mus musculus [12] = experiment: Decrease in glycosylated hemoglobin in db/db mouse at 3 mg/kg, po after 14 days; type: functional; parameters: scale not given: the % may be the effect or the level left
[13] = target: T2, Beta-1 adrenergic receptor (Homo sapiens, UniProt P08588)
T2 sequence (P08588 whole entry): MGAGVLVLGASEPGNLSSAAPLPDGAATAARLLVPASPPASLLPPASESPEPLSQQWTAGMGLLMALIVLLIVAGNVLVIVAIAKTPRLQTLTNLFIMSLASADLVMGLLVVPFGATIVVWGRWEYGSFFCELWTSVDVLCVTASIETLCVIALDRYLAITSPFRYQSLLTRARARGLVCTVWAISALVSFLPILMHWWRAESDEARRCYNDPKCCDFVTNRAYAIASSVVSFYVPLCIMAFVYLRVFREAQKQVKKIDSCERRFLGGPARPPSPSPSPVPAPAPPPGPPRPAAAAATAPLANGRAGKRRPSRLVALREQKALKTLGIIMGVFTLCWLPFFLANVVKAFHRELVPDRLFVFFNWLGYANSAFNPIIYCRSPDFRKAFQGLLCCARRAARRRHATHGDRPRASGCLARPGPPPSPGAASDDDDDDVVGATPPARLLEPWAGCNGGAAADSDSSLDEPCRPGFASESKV
Description: Activity at human beta-1 adrenergic receptor expressed in CHO cells by stimulation of cAMP production

Mus musculus [14] = experiment: Decrease in plasma glucose level in db/db mouse at 0.3 mg/kg, po after 14 days; type: functional
Mus musculus [15] = experiment: Decrease in plasma glucose level in db/db mouse at 0.03 mg/kg, po after 14 days; type: functional
[16] = target: Beta-3 adrenergic receptor (Homo sapiens, UniProt P13945)
Chain of Beta-3 adrenergic receptor (P13945 whole entry): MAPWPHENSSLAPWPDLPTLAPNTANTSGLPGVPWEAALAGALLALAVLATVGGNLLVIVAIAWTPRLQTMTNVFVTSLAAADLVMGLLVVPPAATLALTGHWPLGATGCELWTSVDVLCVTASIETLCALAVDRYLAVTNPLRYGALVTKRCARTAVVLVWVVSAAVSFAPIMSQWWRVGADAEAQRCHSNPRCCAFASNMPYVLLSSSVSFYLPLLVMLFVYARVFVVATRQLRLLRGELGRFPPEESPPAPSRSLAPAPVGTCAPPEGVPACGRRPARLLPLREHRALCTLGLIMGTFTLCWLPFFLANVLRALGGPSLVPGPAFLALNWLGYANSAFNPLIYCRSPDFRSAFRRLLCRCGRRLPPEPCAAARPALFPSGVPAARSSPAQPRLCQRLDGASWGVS
Description: Activity at human beta-3 adrenergic receptor expressed in CHO cells by stimulation of cAMP production

Mus musculus [17] = experiment: Decrease in plasma glucose level in db/db mouse at 3 mg/kg, po after 14 days; type: functional
Mus musculus [18] = experiment: Decrease in plasma glucose level in db/db mouse at 0.1 mg/kg, po after 14 days; type: functional
Mus musculus [19] = experiment: Decrease in glycosylated hemoglobin in db/db mouse at 1 mg/kg, po after 14 days; type: functional; parameters: scale not given: the % may be the effect or the level left
Mus musculus [20] = experiment: Decrease in glycosylated hemoglobin in db/db mouse at 0.1 mg/kg, po after 14 days; type: functional; parameters: scale not given: the % may be the effect or the level left
Mus musculus [21] = experiment: Decrease in plasma glucose level in db/db mouse at 1 mg/kg, po after 14 days; type: functional
Mus musculus [22] = experiment: Decrease in plasma insulin level in db/db mouse at 0.01 mg/kg, po after 14 days; type: functional
Mus musculus [23] = experiment: Decrease in plasma glucose level in db/db mouse at 0.01 mg/kg, po after 14 days; type: functional
Mus musculus [24] = experiment: Decrease in plasma insulin level in db/db mouse at 1 mg/kg, po after 14 days; type: functional
Mus musculus [25] = experiment: Decrease in glycosylated hemoglobin in db/db mouse at 0.01 mg/kg, po after 14 days; type: functional; parameters: scale not given: the % may be the effect or the level left
Mus musculus [26] = experiment: Decrease in plasma insulin level in db/db mouse at 0.1 mg/kg, po after 14 days; type: functional
Mus musculus [27] = experiment: Decrease in glycosylated hemoglobin in db/db mouse at 100 mg/kg, po after 14 days; type: functional; parameters: scale not given: the % may be the effect or the level left
[28] = Half life in Beagle dog at 0.2 mg/kg, iv; type: ADME, organism-based, Canis lupus familiaris; parameters: dose 0.2 mg/kg, route intravenous; details: in vivo
Mus musculus [29] = experiment: Decrease in plasma glucose level in db/db mouse at 10 mg/kg, po after 14 days; type: functional
Mus musculus [30] = experiment: Decrease in plasma insulin level in db/db mouse at 10 mg/kg, po after 14 days; type: functional
Mus musculus [31] = experiment: Decrease in glycosylated hemoglobin in db/db mouse at 10 mg/kg, po after 14 days; type: functional; parameters: scale not given: the % may be the effect or the level left
[32] = Renal clearance in Beagle dog; type: ADME, organism-based, Canis lupus familiaris, Kidney; details: in vivo, read-out: CL_renal
Mus musculus [33] = experiment: Increase of thermogenic activity in CD1 mouse at 10 mg/kg; type: functional, organism-based; parameters: dose 10 mg/kg
[34] = Bioavailability in Wistar Han rat at 1 mg/kg, po and 1 mg/kg, iv; type: ADME, organism-based; details: in vivo
[35] = Volume of distribution in cynomolgus monkey; type: ADME, organism-based, Macaca fascicularis; details: in vivo, read-out: Vss
[36] = Clearance in cynomolgus monkey; type: ADME, organism-based, Macaca fascicularis; details: in vivo
Mus musculus [37] = experiment: Decrease in plasma glucose level in db/db mouse at 100 mg/kg, po after 14 days; type: functional
[38] = Volume of distribution in Wistar Han rat at 1 mg/kg, iv or 1 mg/kg, po; type: ADME, organism-based; details: in vivo, read-out: Vss
Mus musculus [39] = experiment: Decrease in plasma glucose level in db/db mouse at 30 mg/kg, po after 14 days; type: functional
Mus musculus [40] = experiment: Decrease in glycosylated hemoglobin in db/db mouse at 30 mg/kg, po after 14 days; type: functional; parameters: scale not given: the % may be the effect or the level left
[41] = Clearance in Wistar Han rat at 1 mg/kg, iv or 1 mg/kg, po; type: ADME, organism-based; details: in vivo
[42] = Renal clearance in Wistar Han rat at 1 mg/kg, iv or 1 mg/kg, po; type: ADME, organism-based, Kidney; details: in vivo, read-out: CL_renal
[43] = target: T2, Beta-1 adrenergic receptor; experiment: Displacement of [125I]cyanopindolol from human cloned beta-1 adrenergic receptor expressed in Sf9 cells
Mus musculus [44] = experiment: Increase of thermogenic activity in CD1 mouse at 3 mg/kg; type: functional, organism-based; parameters: dose 3 mg/kg
Mus musculus [45] = experiment: Decrease in plasma insulin level in db/db mouse at 30 mg/kg, po after 14 days; type: functional
[46] = Half life in iv dosed cynomolgus monkey; type: ADME, organism-based, Macaca fascicularis; details: in vivo
[47] = Half life in Wistar Han rat at 1 mg/kg, iv; type: ADME, organism-based; parameters: dose 1 mg/kg, route intravenous; details: in vivo
[48] = target: Beta-2 adrenergic receptor and beta-3 adrenergic receptor (Homo sapiens, UniProt P07550+P13945); experiment: Ratio of pEC50 for human beta-3 adrenergic receptor to pKi for human beta2 adrenergic receptor; type: functional
[49] = Half life in po dosed cynomolgus monkey; type: ADME, organism-based, Macaca fascicularis; details: in vivo
Mus musculus [50] = experiment: Decrease in plasma insulin level in db/db mouse at 100 mg/kg, po after 14 days; type: functional
[51] = Half life in Wistar Han rat at 1 mg/kg, po; type: ADME, organism-based; parameters: dose 1 mg/kg, route oral; details: in vivo
[52] = target: T1, Beta-2 adrenergic receptor; experiment: Displacement of [125I]cyanopindolol from human cloned beta-2 adrenergic receptor expressed in Sf9 cells
Mus musculus [53] = experiment: Increase of thermogenic activity in CD1 mouse at 30 mg/kg; type: functional, organism-based; parameters: dose 30 mg/kg

Structure (SMILES): O=C(O)c1ccncc1-c1cccc(NCCNC[C@H](O)c2cccc(Cl)c2)c1
plasma glucose (Mus musculus [18]): 181 mg/dL
bioavailability [1]: 27%
Activity (Mus musculus [19]): 4.8%
AUC(0-inf) [4]: 161 ng·h/mL
half-life [5]: 1.7 h
Activity (Mus musculus [20]): 5%
plasma glucose (Mus musculus [21]): 180 mg/dL
Activity (Mus musculus [22]): 11.4 ng/mL
plasma glucose (Mus musculus [23]): 351 mg/dL
EC50 [6]: > 10000 nM
Vd [7]: 0.33 L/kg
clearance [10]: 5.64 mL/min/kg
Activity (Mus musculus [24]): 1.4 ng/mL
EC50 [13]: 10000 nM
EC50 [16]: 0.1 nM
Activity (Mus musculus [25]): 5.6%
Activity (Mus musculus [26]): 2.8 ng/mL

Structure (SMILES): C[C@H](CNc1cccc(-c2ncccc2C(=O)O)c1)NC[C@H](O)c1cccc(Cl)c1
EC50 [6]: 1580 nM
EC50 [13]: 794 nM
EC50 [16]: 31.6 nM

Structure (SMILES): O=C(O)c1cncc(-c2cccc(NCCNC[C@H](O)c3cccc(Cl)c3)c2)c1
EC50 [6]: 3980 nM
EC50 [13]: 3160 nM
EC50 [16]: 63.1 nM

Structure (SMILES): C[C@H](CNc1cccc(-c2ccc(C(=O)O)cc2C(=O)O)c1)NC[C@H](O)c1cccc(Cl)c1
EC50 [6]: > 10000 nM
Vd [7]: 0.99 L/kg
clearance [10]: 9.3 mL/min/kg
EC50 [13]: 2510 nM
EC50 [16]: 0.2 nM

Structure (SMILES): O=C(O)c1cccc(-c2cccc(NCCNC[C@H](O)c3cccc(Cl)c3)c2)c1 [SOLABEGRON]
bioavailability [1]: 43%
Activity (Mus musculus [27]): 7.06%
half-life [28]: 3.3 h
AUC(0-inf) [4]: 595 ng·h/mL
half-life [5]: 5 h
plasma glucose (Mus musculus [29]): 384 mg/dL
Activity (Mus musculus [30]): 6.3 ng/mL
Activity (Mus musculus [31]): 7.3%
CL renal [32]: 0.014 mL/min/kg
Activity (Mus musculus [33]): Dose-dependent effect
bioavailability [34]: 30%
Vd [35]: 0.556 L/kg
clearance [36]: 5.5 mL/min/kg
plasma glucose (Mus musculus [37]): 185 mg/dL
Vd [38]: 1.3 L/kg
plasma glucose (Mus musculus [39]): 207 mg/dL
Activity (Mus musculus [40]): 7.6%
EC50 [6]: 1260 nM
clearance [41]: 18.1 mL/min/kg
CL renal [42]: 0.16 mL/min/kg
Vd [7]: 0.34 L/kg
clearance [10]: 2.4 mL/min/kg
Ki [43]: 398 nM
Activity (Mus musculus [44]): Dose-dependent effect
Activity (Mus musculus [45]): 4.4 ng/mL
EC50 [13]: 3980 nM
half-life [46]: 4.5 h
half-life [47]: 2.1 h
Ratio [48]: 398
half-life [49]: 5.2 h
EC50 [16]: 3.98 nM
Activity (Mus musculus [50]): 0.9 ng/mL
half-life [51]: 3 h
Ki [52]: 1580 nM
Activity (Mus musculus [53]): Dose-dependent effect

Structure (SMILES): C[C@H](CNc1cccc(-c2ccc(C(=O)O)cc2)c1)NC[C@H](O)c1cccc(Cl)c1
EC50 [6]: 1580 nM
EC50 [13]: 794 nM
EC50 [16]: 31.6 nM

Structure (SMILES): O=C(O)c1cccc(-c2cccc(NCCNC[C@H](O)c3cccc(Cl)c3)c2)n1
EC50 [6]: 10000 nM
EC50 [13]: 5010 nM
EC50 [16]: 39.8 nM

Compounds with a lower EC50 [6], results first:

bioavailability [1]: 40%
AUC(0-inf) [4]: 310 ng·h/mL
half-life [5]: 2.4 h
EC50 [6]: 1000 nM
Vd [7]: 0.37 L/kg
clearance [10]: 11.3 mL/min/kg
EC50 [13]: 631 nM
EC50 [16]: 0.251 nM
Structure (SMILES): C[C@H](CNc1cccc(-c2ccccc2C(=O)O)c1)NC[C@H](O)c1cccc(Cl)c1
Activity (Mus musculus [2]): 3 ng/mL
Activity (Mus musculus [3]): 5.7%
Activity (Mus musculus [8]): 7.2%
Activity (Mus musculus [9]): 6.7 ng/mL
Activity (Mus musculus [11]): 13.7 ng/mL
Activity (Mus musculus [12]): 5.4%
plasma glucose (Mus musculus [14]): 238 mg/dL
plasma glucose (Mus musculus [15]): 417 mg/dL
plasma glucose (Mus musculus [17]): 222 mg/dL

bioavailability [1]: 28%
AUC(0-inf) [4]: 135 ng·h/mL
half-life [5]: 2.5 h
EC50 [6]: 50.1 nM
Vd [7]: 0.45 L/kg
clearance [10]: 7.3 mL/min/kg
EC50 [13]: 6.31 nM
EC50 [16]: 0.1 nM
Structure (SMILES): C[C@H](CNc1cccc(-c2cccc(C(=O)O)c2)c1)NC[C@H](O)c1cccc(Cl)c1

bioavailability [1]: 37%
AUC(0-inf) [4]: 173 ng·h/mL
half-life [5]: 2.4 h
EC50 [6]: 631 nM
Vd [7]: 1.37 L/kg
clearance [10]: 7.1 mL/min/kg
EC50 [13]: 794 nM
EC50 [16]: 1.58 nM
Structure (SMILES): Cc1ccc(C(=O)O)cc1-c1cccc(NCCNC[C@H](O)c2cccc(Cl)c2)c1

EC50 [6]: 501 nM
EC50 [13]: 1260 nM
EC50 [16]: 158 nM
Structure (SMILES): COC(=O)c1cccc(-c2cccc(NCCNC[C@H](O)c3cccc(Cl)c3)c2)c1
